RP-LC retention time data for 77 molecules are collected here from the METLIN SMRT retention time set (Domingo-Almenara et al. 2019).

This data set is described as follows: gradient 5% acetonitrile 3 min, to 50% in 2 min, to 85% in 15 min, held 3 min, 100 µL/min. To be noted: column: Zorbax Extend-C18 2.1 x 50 mm; eluents: water / acetonitrile, 0.1% formic acid. A digest of the protocol:
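A Zorbax Extend-C18 column (2.1 × 50 mm, 1.8 μm) run at 100 μL/min with water and acetonitrile, both containing 0.1% formic acid, separated mixtures of ~100 pure standards. The HPLC was coupled to a quadrupole time-of-flight mass spectrometer operated in positive and negative ionization mode, with dead and dwell volumes of 40 μL and 900 μL. Each retention time was taken from a computationally picked adduct peak that was then manually inspected.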
`CCn1cc(C(=O)Nc2ccc(F)c(C)c2)c(S(=O)(=O)N2CCSCC2)n1` registered an RP-LC retention time of 1040 s.
The value for `Cc1oc(-c2[nH]ncc2C(=O)N2CCCC2)cc1S(=O)(=O)NCc1cccnc1` was 574 s.
The molecule `CCn1ccc(C(=O)N2CCN(c3ccc(=O)n(-c4ccc(Cl)cc4)n3)CC2)n1` came in with an RP-LC retention time of 753 s.
The value for `CCCCn1c(=O)c2ccccc2n(Cc2nc(-c3ccccc3Br)no2)c1=O` was 1170 s; that for `O=C(NCc1ccccc1)c1cn(-c2ccc(NC(=O)C3CC3)cn2)cn1` was 725 s.
With `O=C(NCc1ccc(F)cc1)[C@@H]1COCC(=O)N1Cc1ccc(F)cc1`, the RP-LC retention time was determined as 791 s.
The value for `O=C(NCc1cc(F)cc(F)c1)c1ccc(NC(=O)C2CCC2)cc1N1CCOCC1` was 871 s; that for `CC(C)C(=O)N1CCCC1c1nc(CCOCC2CC2)no1` (configuration not stated) was 733 s.
The value for `O=C(NC1CCCCC1)N1CCCC1c1nc(-c2cccc(F)c2)no1` (configuration not stated) was 984 s; that for `COc1ccccc1CNC(=O)Cn1cccc1-c1nnc(-c2ccccc2)o1` was 920 s.
In turn, `COc1ccccc1Nc1c(-c2ccc3c(c2)OCO3)nc2cnccn12` had an RP-LC retention time of 859 s.
The value for `O=C(NCCN1CCN(S(=O)(=O)c2ccccc2)CC1)c1c(F)cccc1Cl` was 574 s.
`N#Cc1ccc(C(=O)Nc2cnn(-c3ncc(N4CCCC4)cn3)c2)cc1` registered an RP-LC retention time of 798 s.
`CC(C)N1C(=O)c2cccnc2Sc2cc(NC(=O)Cc3ccccc3F)ccc21` displayed an RP-LC retention time of 858 s.
The value for `O=C(NCCCN1CCCC1)c1ccc2c(c1)nnn2Cc1ccccc1` was 628 s; that for `COC(=O)C1=C(C)NC2=C(C(=O)c3ccccc32)C1c1ccc(OC)cc1OC` (configuration not stated) was 856 s.
In the case of `Cc1ccc(-c2nc3n(CC(=O)NC4CCCC4)c4c(c(=O)n3n2)CCC4)cc1`, the RP-LC retention time is 789 s.
The value for `COc1ccc(N2CCN(C(=O)C3CCCN(S(=O)(=O)c4cn(C(C)C)cn4)C3)CC2)cc1` (configuration not stated) was 723 s.
`O=[N+]([O-])c1c(NCCO)cc(Nc2ccc3c(c2)OCCO3)c2nonc12`: the RP-LC retention time came out at 660 s.
The value for `Cc1ccc(N2CCN(C(=O)c3cn(-c4ccc(NC(=O)C5CC5)cn4)cn3)CC2)c(C)c1` was 913 s.
Regarding `COc1ccc(-c2cn3c(n2)N(C(=O)c2cccs2)CCC3)cc1`, the RP-LC retention time turned out to be 883 s.
The molecule `Cc1cc(N2CCCC2)n2nc(CN3CCN(c4ccc(F)cc4)CC3)nc2n1` had an RP-LC retention time of 634 s.
The value for `COc1ccc(Cl)cc1NC(=O)Nc1ccc2c(c1)CCN2S(=O)(=O)c1ccccc1` was 1090 s; that for `CC(C)CN1CCN(C(=O)c2nc(-c3ccnc(N4CCCCC4)c3)no2)CC1` was 588 s.
The value for `Cc1ccc(-n2cc3c(c(C(=O)NCCCOC(C)C)c2=O)CC(C)(C)CC3=O)cc1` was 997 s; that for `CCOc1ccccc1NC(=O)NC(C)C(=O)N1CCc2ccccc21` (configuration not stated) was 936 s; that for `CC(C)C(=O)N1CCc2c([nH]c3ccccc23)C12C(=O)N(C)c1ccc(Br)cc12` (configuration not stated) was 976 s.
The value for `COc1cc(-c2ccc(Nc3ccccc3C(=O)O)c(OC)c2)ccc1Nc1ccccc1C(=O)O` was 1290 s; that for `CCOCc1cc(OC)c(-c2ccc(C[C@H](NC(=O)c3c(F)cccc3F)C(=O)O)cc2)c(OC)c1` was 1020 s; that for `O=C1NCCCCCN(C(=O)CN2CCCCCC2)[C@H]2CCC[C@@H]12` was 567 s.
With `COc1ccc(OCc2nc(CCN(C)C(=O)c3cc(OC)cc(OC)c3)no2)cc1`, the RP-LC retention time came out at 810 s.
The value for `CN(C)C(=O)c1cccc2c1CCN2C(=O)c1ccccc1` was 706 s.
The value for `COc1ccc(CCc2nc3nccc(-c4ccncc4)n3n2)cc1` was 697 s; that for `Cc1ccc(S(=O)(=O)NCC(=O)Nc2ccc3c(c2)Cc2ccccc2-3)cc1` was 975 s.
`CCN1c2cc(C(=O)NC3CCCCC3)ccc2C(=O)N2CCCCC21` (configuration not stated) yielded an RP-LC retention time of 853 s.
The value for `CC(C)C(=O)Nc1nc(-c2ccc3c(c2)NC(=O)C(C)O3)cs1` (configuration not stated) was 787 s; that for `CCCNC(=O)c1n[nH]c2c1CC(C)CC2` (configuration not stated) was 740 s; that for `COC(=O)CNC(=O)N1CCN(c2nc3ccccc3n2Cc2ccccc2)CC1` was 644 s.
The value for `O=C(Nc1nnc(-c2ccc(Cl)s2)o1)c1ccc2ncsc2c1` was 733 s; that for `Cc1sc(NC(=O)c2ccc(Br)cc2)nc1-c1ccc2c(c1)NC(=O)CO2` was 972 s; that for `COc1ccc(-c2cc3nn(CC(=O)NCC4CCCO4)c(=O)n3c(C)n2)cc1` (configuration not stated) was 728 s.
In the case of `Cc1cccc(-c2nc(Cn3nnc(-c4nc(-c5cccs5)no4)c3C)c(C)o2)c1`, the RP-LC retention time was found to be 1220 s.
The value for `COc1ccc(-c2cn3c(CC(=O)NCc4cccc(Br)c4)csc3n2)cc1OC` was 764 s; that for `CCCn1cnc2cc(CNC(=O)c3cc4ccccc4[nH]3)ccc21` was 659 s; that for `O=C(NC1CC1)[C@@H]1C[C@H](Oc2cccnc2)CN1C(=O)c1cnccn1` was 526 s.
On to `CC(=O)Nc1ccc(C(=O)NC2CCN(c3cc(-c4cccs4)[nH]n3)C2)cc1` (configuration not stated), for which the RP-LC retention time stood at 641 s.
`CCCC(C)NC(=O)c1ccc2c(c1)CCCN2S(C)(=O)=O` (configuration not stated): the RP-LC retention time stood at 827 s.
Regarding `Cn1c(=O)c2c(nc(Cc3ccc(N)cc3)n2C)n(C)c1=O`, the RP-LC retention time was determined as 621 s.
The value for `O=C(Cn1c(=O)cc(-c2nc(C3CC3)no2)c2ccccc21)Nc1cccc(F)c1` was 952 s.
The value for `CCc1cccc(NC(=O)N2CCc3c(c(-c4nc(C5CC5)no4)nn3C)C2)c1` was 928 s.
For the molecule `COc1ccc(CC(=O)N2C[C@@H]3C[C@H]2C[C@@H]3NC(=O)c2cccnc2)cc1Cl`, the RP-LC retention time worked out at 614 s.
The value for `CCC(=O)N1CCc2cc(-c3ccc(C(=O)N4CCN(c5ccccn5)CC4)cc3)ccc21` was 653 s; that for `O=S(=O)(c1ccc(F)cc1F)N1CCN(Cc2cccc(F)c2)C2(CCOCC2)C1` was 844 s; that for `Cc1nc([C@@H]2CN(C(=O)c3cscn3)C[C@H]2C(N)=O)n[nH]1` was 533 s.
The value for `c1nc2ccc(-c3nc(-c4ccc5c(c4)nnn5CCN4CCCCC4)no3)cc2[nH]1` was 570 s; that for `COC(=O)c1cnn(-c2ccc(C)cc2)c1N` was 704 s; that for `Cc1cc(C)n(-c2ccnc(N3CCC(C(=O)N4CCc5ccccc5C4)CC3)n2)n1` was 935 s.
The value for `CC(C)c1nc2cccnc2n1CCN1CCN(C(=O)Nc2ccccc2Br)CC1` was 603 s.
`CCC1CN2C=NC(N3CCN(C(=O)Nc4ccc(SC)cc4)CC3)=CC2=N1` (configuration not stated) had an RP-LC retention time of 655 s.
As to `COc1cc(Nc2nc(-c3nnn(-c4cc(Cl)ccc4OC)c3C)ns2)cc(OC)c1`, the RP-LC retention time amounted to 1070 s.
On to `CCc1noc(NC(C)=O)c1-c1ccc(OC)c(S(=O)(=O)Nc2ccc(OC)c(Cl)c2)c1`, for which the RP-LC retention time was 775 s.
Turning to `CCCCOc1ccc(-c2cc3c4nnc(CCC(=O)N5CCC(C(N)=O)CC5)n4ccn3n2)cc1`, the RP-LC retention time was determined as 729 s.
The value for `COc1ccc(S(=O)(=O)NCc2ccc3c(c2)CCN3C(=O)C(C)C)cc1OC` was 803 s; that for `CN(C)c1ccc(CNC(=O)CCc2c(-c3ccc(Br)cc3)nc3ccccn23)cc1` was 599 s.
The value for `COc1ccc(OCc2noc(CNC(=O)c3oc4cc(OC)ccc4c3C)n2)cc1` was 925 s; that for `Cc1c(C(=O)O)nnn1-c1ccc2c(c1)OCO2` was 639 s.
The value for `COc1cc(-c2nc3ncccn3c2NCc2ccc(C)cc2)ccc1OC(C)C` was 811 s.
`CCCN(CCC)CCNC(=O)C1CCC(=O)N(c2ccc(OC)cc2)C1c1ccc(F)cc1` (configuration not stated): the RP-LC retention time is 649 s.
`CCCCn1c(=O)c2ccccc2n(Cc2nc(-c3ccc(OCC)c(OC)c3)no2)c1=O` came in with an RP-LC retention time of 968 s.
In the case of `Cc1nc(NCc2ccco2)sc1C(=O)Nc1cccc(C(F)(F)F)c1`, the RP-LC retention time amounted to 887 s.
Regarding `COc1cccc(NC(=O)N2CCCC2c2nc(-c3cccc(C)c3)no2)c1` (configuration not stated), the RP-LC retention time was 877 s.
Turning to `COc1ccc2c(c1)C1CC(C)(NC(=O)C1C(=O)c1ccccc1)O2` (configuration not stated), the RP-LC retention time turned out to be 758 s.
The value for `Cc1csc(-c2cc(S(=O)(=O)Nc3ccc(Cl)cc3F)cn2CC(=O)N2CCCC2)n1` was 944 s; that for `Cc1ccc(CS(=O)(=O)N[C@@H]2CN(c3ncccn3)C[C@H]2CN(C)C)cc1` was 619 s.
For the molecule `COCc1noc(CC2CCOC3(CCN(C(=O)C4(c5ccccc5)CC4)CC3)C2)n1` (configuration not stated), the RP-LC retention time amounted to 820 s.
`CC1(C)CC(=O)c2cn(-c3ccccc3)c(=O)c(C(=O)N3CCN(c4ccccn4)CC3)c2C1`: the RP-LC retention time was 622 s.
As for `CC1CCC(NC(=O)C(Cc2c[nH]c3ccccc23)NC(=O)C2CCC(C)CC2)CC1` (configuration not stated), the RP-LC retention time stood at 1100 s.
